Earlier results, collected in PMC9558053, “Development of a novel high-throughput screen for the identification of new inhibitors of protein S-acylation” (The Journal of Biological Chemistry, 2022).

Tested on: zDHHC20
Parameters: method as in PMID 34467875, PMID 34309372
Settings: ref [33], [39]; read-out: IC50 for inhibition of zDHHC20 activity in vitro; cited from earlier work

C=CC(=O)N(CC#N)CCCCCCCCCCCCCC [N-cyanomethyl-N-myracrylamide]
IC50: 1.35 ± 0.26 µM
